Measurements taken from US20100144790A1, “Use of Thalidomide for Alzheimers Disease Treatment and Prevention” (priority 2008, published 2010).
“Also recorded” adds a separate entry of the source.

Key:
APP23 transgenic mice [1] = experiment: Aβ-related memory deficits in Thalidomide-treated APP23 mice; type: in vivo, mouse; conditions: Thalidomide 100 mg/kg/day i.p.
Experimental: The Thalidomide used to test effectiveness was ordered from Sigma, T144, 1.0 gram. […] The application of Thalidomide to the mice born by the same mother was during the period from 9 months old to 12 months old. The preparation of Thalidomide was at first to be dissolved in DMSO and then diluted with saline. The injection into peritoneal cavity was performed once a day for 3 months. In general, the average weight of the mice was 30 grams. […] The Hole-board memory task was used to measure a mouse's ability to remember which one out of four equidistant holes was baited with food. Two photobeam apparatuses were used with a hole board for assessing directed exploration in mice for behavioral tests. A tested mouse (n=10 for each group) was placed in the center of the hole-board and the number of nose pokes was automatically registered for 5 min. […] The number of head dips, time spent head-dipping, and the number of rearings was recorded. A comprehensive cognitive performance was determined by calculating the mean number of correct pokes per trial that mouse made each day. Cognition was expressed as the percentage of correct pokes. The measurements in the hole-board test were analyzed by unpaired t test. […] A recognition index was calculated for each mouse, expressed as the ratio (100TB)×(TA+TB), where TA and TB are the time spent during the second trial on subject A and subject B, respectively.

BACE1 [2] = experiment: BACE1 protein level in Thalidomide-treated APP23 mice; type: in vivo, mouse; conditions: Thalidomide 100 mg/kg/day i.p.
Experimental: (§1) Thalidomide is an effective BACE1 inhibitor. The Thalidomide used to test effectiveness was ordered from Sigma, T144, 1.0 gram. The Thalidomide dose was 100 mg/kg/day. The application of Thalidomide to the mice born by the same mother was during the period from 9 months old to 12 months old. The preparation of Thalidomide was at first to be dissolved in DMSO and then diluted with saline. The injection into peritoneal cavity was performed once a day for 3 months. In general, the average weight of the mice was 30 grams. The volume of injection was 100 mg/kg/day×0.03 Kg/mouse=3 mg/mouse/day (if 10 mg/ml of Thalidomide, then 300 ul/mouse/day). […] The amyloid plaque number was 84.6/section in untreated control APP23 mice, where as there was only 3.91/section in the Thalidomide-treated APP23 mice. Use of Thalidomide in the transgenic mice reduced Aβ plaque formation and Aβ production, which is correlated to the reduced BACE1 enzymatic activity and protein level. Thus Thalidomide can decrease CSF BACE1 and CSF Aβ in AD and MCI patients. […]
One BACE1 ELISA used a combination of a highly specific anti-BACE1 polyclonal antibody SECB2 as a capture antibody and biotinylated anti-BACE1 polyclonal antibody SECB1 as a detection antibody. […] The concentration of BACE1 will be calculated from the standard curve and expressed as μg/ml.

[3] = tested on: Aβ deposition in the brain of APP23 mice; experiment: Aβ plaque number by 6E10 immunostaining in APP23 mice after Thalidomide injection; type: in vivo, mouse; conditions: Thalidomide 100 mg/kg
Experimental: as §1, with “level.” for “level. Thus Thalidomide can decrease CSF BACE1 and CSF Aβ in AD and MCI patients.”
(§2) Quantitation of immunoreactive structures 30-μm serial sagittal sections through the entire rostrocaudal extent of the hippocampus were cut on a cryostat. […] For each section, we delineated a 400-μm^2 area in CA1 and in the entorhinal cortex and counted all NeuN-immunoreactive cells within that 400-μm^2 box. The mean sum of neurons was counted per animal (n=10). […] We also measured the diameter of each counted plaque. […]

APP23 transgenic mice [4] = experiment: Neuronal loss in Thalidomide-treated APP23 mice; type: in vivo, mouse; conditions: Thalidomide 100 mg/kg/day i.p.
Experimental: as §1, with “level.” for “level. Thus Thalidomide can decrease CSF BACE1 and CSF Aβ in AD and MCI patients.”
as §2

[5] = cited from earlier work
Aβ production = Aβ production in Thalidomide-treated APP23 mice; type: in vivo, mouse; conditions: Thalidomide 100 mg/kg/day i.p.
Experimental: as §1, with “level.” for “level. Thus Thalidomide can decrease CSF BACE1 and CSF Aβ in AD and MCI patients.”
APP23 and wild-type mice (n=10 per group) were killed at 12 and 24 mo of age, and one hemisphere of the brain was homogenized in homogenization buffer (250 mM sucrose, 20 mM Tris-HCl, pH 7.4, 1 mM EDTA, and 1 mM EGTA). […] Protein concentration was measured by protein assay (Bio-Rad Laboratories). […] Aβ40 and Aβ42 were measured with an Aβ40 and Aβ42 ELISA kit (Biosource International). […]

BACE1 [6] = molecular target: T1, BACE1 (Mus musculus, UniProt P56818); experiment: BACE1 enzymatic activity in frontal cortex crude extracts of Thalidomide-treated APP23 mice (fluorescent-labeled APP peptide); type: in vivo; conditions: Thalidomide 100 mg/kg
T1 construct: the frontal cortices of 12-months old APP23 transgenic mice after Thalidomide treatment with doses of 100 mg/kg for one month were obtained for the enzymatic crude extracts; from tissue; host or cells: frontal cortex / brain homogenate of APP23 transgenic mice (C57BL/6 background)
T1 sequence (P56818 46-501): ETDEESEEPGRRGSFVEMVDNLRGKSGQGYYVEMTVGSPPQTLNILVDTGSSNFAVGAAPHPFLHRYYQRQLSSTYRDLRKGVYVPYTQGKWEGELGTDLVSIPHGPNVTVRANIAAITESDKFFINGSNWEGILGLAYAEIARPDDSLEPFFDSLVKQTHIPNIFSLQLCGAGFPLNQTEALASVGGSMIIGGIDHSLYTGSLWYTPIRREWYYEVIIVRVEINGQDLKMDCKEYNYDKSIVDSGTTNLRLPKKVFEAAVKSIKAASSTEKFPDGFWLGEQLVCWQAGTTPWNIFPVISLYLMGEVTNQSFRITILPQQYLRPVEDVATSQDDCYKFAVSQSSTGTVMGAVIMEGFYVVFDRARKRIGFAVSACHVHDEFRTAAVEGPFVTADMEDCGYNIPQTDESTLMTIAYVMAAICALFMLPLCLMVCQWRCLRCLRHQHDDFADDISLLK
Experimental: Thalidomide is an effective BACE1 inhibitor. The Thalidomide used to test effectiveness was ordered from Sigma, T144, 1.0 gram. The Thalidomide dose was 100 mg/kg/day. The application of Thalidomide to the mice born by the same mother was during the period from 9 months old to 12 months old. The preparation of Thalidomide was at first to be dissolved in DMSO and then diluted with saline. The injection into peritoneal cavity was performed once a day for 3 months. In general, the average weight of the mice was 30 grams. The volume of injection was 100 mg/kg/day×0.03 Kg/mouse=3 mg/mouse/day (if 10 mg/ml of Thalidomide, then 300 ul/mouse/day). […]
BACE1 enzymatic activity was measured by using an aliquot of brain homogenate from APP23 and the wild-type mice. […] An equal amount of protein was mixed with 100 μl of substrate, and fluorescence intensity was measured with a microplate reader (BioTek) at an excitation wavelength of 320 nm and an emission wavelength of 390 nm.
To evaluate the BACE1 enzymatic activity level under the impact of Thalidomide, the frontal cortices of 12-months old APP23 transgenic mice after Thalidomide treatment with doses of 100 mg/kg for one month were obtained for the enzymatic crude extracts. […] The specific fluorescence was detected when labeled APPwt or APPsw peptides were cleaved by BACE1. […]

BACE1 [7] = molecular target: T2, BACE1 (Homo sapiens, UniProt P56817); experiment: BACE1 enzymatic activity of AD brain crude extracts with caspase inhibitor; type: biochemical; conditions: AD brain enzymatic crude extracts incubated with the caspase inhibitor
T2 construct: from tissue; host or cells: post-mortem brain of sporadic AD patients (temporal cortex / hippocampus samples)
T2 sequence (P56817 46-501): as the sequence (P56818 46-501) above, with S6P, I162V, I165L, T180S, A182V, V340I, A393L, H443Q counted along it
Description: BACE1 enzymatic activity level increased in brains of AD patients. Fluorescent transfer peptides bearing the APP wild-type peptide (APPwt) BACE1 cleavage site (KTEEISEVKMDAE) or APP Swedish mutation (APPsw) BACE1 cleavage site ([…]) were used to test BACE1 enzymatic activity. These peptides were also labeled with methoxycoumarin acetic acid (MCA) and dinitrophenyl (DNP). As a positive control, we transiently transfected BACE1 cDNA or empty vector into HEK293 cells, and observed high-intensity fluorescence with BACE1-transfected cells (FIG. 2A). Enzymatic activity, represented by the fluorescent intensity of APPwt and APPsw fragments, increased in AD brain samples compared with ND samples (FIG. 2A). Further, more APPsw fragment than the APPwt fragment was cleaved by crude extracts from AD brain (FIG. 2A).

O=C1CCC(N2C(=O)c3ccccc3C2=O)C(=O)N1 (centres unmarked) [Thalidomide]
Aβ-related memory deficits (in words) (APP23 transgenic mice [1]): alleviated
BACE1 protein level (in words) (BACE1 [2]): reduced
Aβ plaque number ([3]; 12 months of age, frontal cortex, 6E10 immunostaining, untreated APP23 84.6/section): 3.91 /section
Aβ deposition / Aβ plaques (in words) ([3]; versus untreated APP23 mice): reduced; also recorded: fewer Aβ plaques
neuronal loss (in words) (APP23 transgenic mice [4]): decreased neuronal loss
tolerability of regimen (in words) ([5]; 400 mg Thalidomide, non-elderly subjects with other conditions, without dose-related, severe or serious adverse events): tolerated
maximum tolerable doses ([5]; human, in vivo): 400-800 mg/daily
Aβ production (in words) (Aβ production): significant reduction
BACE1 enzymatic activity level (in words) (BACE1 [6]; 12 months old APP23 mice, frontal cortex extracts, versus untreated APP23 mice): reduced
decrease in BACE1 activity levels (BACE1 [6]; both the in vitro and in vivo studies, APP23 mice): 42%

ZVAD (Ome)-CH2F
effect on BACE1 enzymatic activity assay (in words) (BACE1 [7]): did not perturb activity
